Source: PubChem BioAssay (NCI)
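Interpolation was linear, between the two tested concentrations surrounding the appropriate level; five concentrations were tested over 48 hours in 96-well plates. TGI: total growth inhibition.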

Columns and labels:
Assay in all cases: NCI anticancer screen, dose series, 48 h
A498 renal = tested on: A498 renal
TK-10 renal = tested on: TK-10 renal
UO-31 renal = tested on: UO-31 renal
UACC-257 melanoma = tested on: UACC-257 melanoma
COLO 205 colon = tested on: COLO 205 colon
K-562 leukemia = tested on: K-562 leukemia
NCI-H226 lung = tested on: NCI-H226 lung
HCT-15 colon = tested on: HCT-15 colon
EKVX NSCLC = tested on: EKVX NSCLC
SW-620 colon = tested on: SW-620 colon
BT-549 breast = tested on: BT-549 breast
SK-MEL-5 melanoma = tested on: SK-MEL-5 melanoma
SNB-19 CNS = tested on: SNB-19 CNS
U251 CNS = tested on: U251 CNS
UACC-62 melanoma = tested on: UACC-62 melanoma
ACHN renal = tested on: ACHN renal
RPMI-8226 leukemia = tested on: RPMI-8226 leukemia
CAKI-1 renal = tested on: CAKI-1 renal
PC-3 prostate = tested on: PC-3 prostate
SN12C renal = tested on: SN12C renal

| Compound | TGI (A498 renal) [µM] | TGI (TK-10 renal) [µM] | TGI (UO-31 renal) [µM] | TGI (UACC-257 melanoma) [µM] | TGI (COLO 205 colon) [µM] | TGI (K-562 leukemia) [µM] | TGI (NCI-H226 lung) [µM] | TGI (HCT-15 colon) [µM] | TGI (EKVX NSCLC) [µM] | TGI (SW-620 colon) [µM] | TGI (BT-549 breast) [µM] | TGI (SK-MEL-5 melanoma) [µM] | TGI (SNB-19 CNS) [µM] | TGI (U251 CNS) [µM] | TGI (UACC-62 melanoma) [µM] | TGI (ACHN renal) [µM] | TGI (RPMI-8226 leukemia) [µM] | TGI (CAKI-1 renal) [µM] | TGI (PC-3 prostate) [µM] | TGI (SN12C renal) [µM] |
| --- | --- | --- | --- | --- | --- | --- | --- | --- | --- | --- | --- | --- | --- | --- | --- | --- | --- | --- | --- | --- |
| CCN(CC)CC(=O)Nc1c(C(N)=O)nnn1Cc1cc(Cl)c(C(=O)c2ccc(Cl)cc2)c(Cl)c1 | > 100 | 57.4 | 31.2 | 32.6 | 33.2 | 37.4 | 30.4 | 34.4 | > 100 | 40.4 | 34.6 | 30.4 | > 100 | 41.1 | 35.4 | > 100 | 77.7 | 65.1 | 38.7 | 50.3 |
| O=C1/C(=C/c2cccnc2)C(n2cccc2)c2c(Br)sc(Br)c21 (configuration not stated) | 30.4 | 4.28 | 3.43 | 3.36 | 21.6 | 7.39 | > 100 | 4.96 | 4.1 | > 21.9 | 37.6 | 21.5 | 9.65 | 3.08 | 4.49 | 7.69 | 4.94 | 7.51 | 4.86 | 14.2 |
| O=C(O)CN1CCNCCN(CP(=O)(O)O)CC1 | 99.1 | > 100 | > 100 | > 100 | > 100 | > 100 | > 100 | > 100 | > 100 | > 100 | > 100 | > 66.5 | > 100 | > 100 | > 100 | > 100 | > 100 | > 100 | > 100 | > 100 |
| CC(C)=CCC[C@@H](C)C1=C(O)C(Nc2ccccc2Br)=C(C)C(=O)C1=O | 45.2 | 68.2 | 35.7 | 43.6 | 32.3 | > 69.9 | 34.2 | 22.9 | 48.3 | 52.1 | 50.1 | 16.1 | 73 | 99.5 | 38.5 | > 60.2 | > 58.6 | 52.1 | 38.6 | 28.2 |
| Cc1ccccc1C1CC(=O)CC(c2ccccc2C)C12C(=O)NC(=O)NC2=O (configuration not stated) | > 100 | > 100 | > 100 | > 100 | > 100 | > 100 | > 100 | > 100 | > 100 | > 100 | > 100 | > 100 | > 100 | > 100 | > 100 | > 100 | 97.4 | > 100 | > 100 | > 100 |
| CCOc1ccc(N=NC2C(=O)N(C(=O)CC(=O)Nc3ccccc3OC)N=C2C)cc1 (configuration not stated) | > 31.6 | > 52.3 | > 100 | > 100 | > 100 | > 100 | > 100 | > 100 | > 100 | 52.9 | > 48.4 | > 100 | > 34.8 | > 63.4 | > 100 | > 100 | > 100 | > 64.7 | > 100 | > 100 |
| CC(C)/C(Cl)=N\OC(=O)Nc1cccc(F)c1 | 17.9 | 28.1 | 32.6 | 30 | 5.87 | 4.8 | 33.5 | 30.6 | 31.8 | 5.5 | 19.5 | 28.4 | > 100 | 33.4 | 45.3 | 27.8 | 15.3 | 32.5 | 30.2 | 32.2 |
| COC1=C2CC(C)CC(OC)[C@@H](OC(=O)CCN)[C@H](C)/C=C(\C)C(OC(N)=O)C(OC)/C=C\C=C(/C)C(=O)NC(=CC1=O)C2=O (some centres not stated) | 31.2 | 20.4 | 16.3 | 2.82 | 0.964 | – | 40.6 | 13.8 | 25 | 1.48 | 16.9 | 15.2 | 20.4 | 6.19 | 4.34 | 16 | 14.5 | 17.7 | 15.1 | 14.2 |
| COc1cc2cc(C(=O)N3CC(CCl)c4c3cc([N+](=O)[O-])c3ccccc43)[nH]c2c(OC)c1OC (configuration not stated) | 97.6 | > 100 | > 100 | > 100 | > 100 | > 100 | > 100 | > 100 | > 100 | > 100 | > 100 | > 100 | > 100 | > 100 | > 100 | > 100 | > 100 | > 100 | > 100 | > 100 |
| N#Cc1c(-c2ccc(Cl)cc2)cc(-c2ccc(Nc3ccnc4cc(C(F)(F)F)ccc34)cc2)[nH]c1=O | > 89.6 | 63.2 | – | > 100 | 59.4 | 15.6 | > 100 | > 100 | > 100 | > 84.2 | 35.5 | > 53.4 | 34.3 | > 100 | 39.6 | > 100 | > 73.7 | > 64.3 | > 100 | > 100 |
| O=C(Nc1cc(C(=O)Nc2cccc(S(=O)(=O)O)c2)cc(C(=O)Nc2cccc(S(=O)(=O)O)c2)c1)c1cccc(C(=O)Nc2cc(C(=O)Nc3cccc(S(=O)(=O)O)c3)cc(C(=O)Nc3cccc(S(=O)(=O)O)c3)c2)c1 | > 100 | > 100 | > 100 | > 100 | > 100 | 58.6 | > 100 | > 100 | > 100 | > 100 | > 100 | > 100 | – | > 100 | > 100 | > 100 | > 100 | > 100 | > 100 | > 100 |
| COc1cc(/C=C2\C[C@H]3[C@@H]4CC=C5C[C@@H](O)CC[C@]5(C)[C@H]4CC[C@]3(C)[C@H]2O)cc(OC)c1OC | 80.6 | > 100 | 36.8 | 83.1 | 42.2 | > 100 | > 100 | > 100 | > 100 | > 100 | 56.8 | 21.5 | > 100 | 40.8 | 39.3 | > 100 | > 100 | > 100 | 92.6 | > 100 |
